From PubChem BioAssay (NCI)
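Exposure lasted 48 hours, with cells grown in 96-well plates and compounds tested at five concentrations. TGI: concentration producing complete growth inhibition.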

Columns and labels:
Test in all cases: inhibition of tumour cell growth, NCI panel, 48 h
EKVX NSCLC = system: EKVX NSCLC
SF-268 CNS = system: SF-268 CNS
SF-539 CNS = system: SF-539 CNS
MALME-3M melanoma = system: MALME-3M melanoma
NCI-H522 lung = system: NCI-H522 lung
KM20L2 colon = system: KM20L2 colon
HOP-92 NSCLC = system: HOP-92 NSCLC
A498 renal = system: A498 renal
HCT-15 colon = system: HCT-15 colon
HOP-62 NSCLC = system: HOP-62 NSCLC
OVCAR-4 ovarian = system: OVCAR-4 ovarian
NCI-H23 lung = system: NCI-H23 lung
TK-10 renal = system: TK-10 renal
NCI-H460 lung = system: NCI-H460 lung
SK-OV-3 ovarian = system: SK-OV-3 ovarian
SNB-19 CNS = system: SNB-19 CNS
CAKI-1 renal = system: CAKI-1 renal
MDA-N = system: MDA-N
HS 578T breast = system: HS 578T breast
MCF7 breast = system: MCF7 breast

| Structure (SMILES) | TGI (EKVX NSCLC) | TGI (SF-268 CNS) | TGI (SF-539 CNS) | TGI (MALME-3M melanoma) | TGI (NCI-H522 lung) | TGI (KM20L2 colon) | TGI (HOP-92 NSCLC) | TGI (A498 renal) | TGI (HCT-15 colon) | TGI (HOP-62 NSCLC) | TGI (OVCAR-4 ovarian) | TGI (NCI-H23 lung) | TGI (TK-10 renal) | TGI (NCI-H460 lung) | TGI (SK-OV-3 ovarian) | TGI (SNB-19 CNS) | TGI (CAKI-1 renal) | TGI (MDA-N) | TGI (HS 578T breast) | TGI (MCF7 breast) |
| --- | --- | --- | --- | --- | --- | --- | --- | --- | --- | --- | --- | --- | --- | --- | --- | --- | --- | --- | --- | --- |
| N#CCC(=O)N/N=C(\C(=O)Nc1ccc(Cl)c(Cl)c1)C1CN(c2ccccc2)N=C1N (stereo not given) | > 100 µM | > 100 µM | > 100 µM | > 100 µM | > 100 µM | > 100 µM | > 100 µM | > 100 µM | > 100 µM | > 100 µM | > 100 µM | > 100 µM | > 100 µM | > 100 µM | > 100 µM | – | – | – | – | – |
| COc1ccccc1/C=C1\CCC(CCN2CCOCC2)C1=O (stereo not given) | > 100 µM | > 100 µM | > 100 µM | > 100 µM | – | > 100 µM | > 100 µM | > 100 µM | > 100 µM | > 100 µM | > 100 µM | > 100 µM | > 100 µM | > 100 µM | – | > 100 µM | > 100 µM | – | – | – |
| O=C1C2CN(Cc3ccccc3)CC1CN(CC1CC1)C2 | > 100 µM | > 100 µM | > 100 µM | > 100 µM | > 100 µM | > 100 µM | > 100 µM | > 100 µM | > 100 µM | > 100 µM | > 100 µM | > 100 µM | > 100 µM | > 100 µM | > 100 µM | > 100 µM | > 100 µM | – | – | – |
| COc1c(C)cc2c(c1O)C1NC(C2)[C@H](O)N2C3COC(=O)[C@@]4(CS[C@@H](c5c(OC(C)=O)c(C)c6c(c53)OCO6)C12)NCCC1=C4NC2C=CC=CC12 (stereo not given in full) | 0.0306 µM | 0.0304 µM | – | < 0.01 µM | – | < 0.01 µM | – | < 0.01 µM | 0.113 µM | < 0.01 µM | – | < 0.01 µM | 1.31 µM | – | – | – | – | – | – | – |
| CCOc1ccc(NC(=O)C2=C(C)NC(C)=C(C(=O)Nc3ccc(OCC)cc3)C2c2ccccc2)cc1 | > 100 µM | > 100 µM | > 100 µM | > 100 µM | > 100 µM | > 100 µM | > 100 µM | > 100 µM | – | > 100 µM | > 100 µM | > 100 µM | > 100 µM | > 100 µM | > 100 µM | > 100 µM | > 100 µM | – | – | – |
| COc1ccc(C=C(c2ccc(OCc3ccccc3)cc2)c2ccc(OCc3ccccc3)cc2)cc1 | > 100 µM | > 100 µM | > 100 µM | > 100 µM | > 100 µM | > 100 µM | – | – | > 100 µM | > 100 µM | > 100 µM | > 100 µM | > 100 µM | > 100 µM | > 100 µM | > 100 µM | > 100 µM | – | – | – |
| Brc1cc2c(cc1C1SCCS1)OCO2 | > 100 µM | > 100 µM | > 100 µM | > 100 µM | > 100 µM | > 100 µM | – | > 100 µM | > 100 µM | > 100 µM | > 100 µM | > 100 µM | > 100 µM | > 100 µM | > 100 µM | > 100 µM | > 100 µM | – | – | – |
| COc1cc(/C=C\c2cccnc2)cc(OC)c1OC | > 100 µM | > 100 µM | > 100 µM | > 100 µM | 96.3 µM | > 100 µM | > 100 µM | – | > 100 µM | > 100 µM | > 100 µM | > 100 µM | > 100 µM | > 100 µM | – | > 100 µM | > 100 µM | – | – | – |
| CCCCCCCC(=O)OCC1OC(OC)C(NC(=O)N(CCCl)N=O)C(O)C1O (stereo not given) | > 83.9 µM | – | 16.5 µM | 28.5 µM | 16 µM | > 59.2 µM | 9.96 µM | 56.8 µM | 15.5 µM | 23.1 µM | > 100 µM | 29.4 µM | 58 µM | > 39.2 µM | 97.1 µM | > 100 µM | 32.6 µM | – | – | – |
| O=C(COC(=O)c1cccc2c(=O)c3ccccc3[nH]c12)Nc1ccccc1 | > 100 µM | > 100 µM | > 100 µM | > 100 µM | 73.4 µM | > 100 µM | > 100 µM | > 100 µM | – | > 100 µM | > 100 µM | 58.9 µM | > 100 µM | > 100 µM | > 100 µM | > 100 µM | > 100 µM | – | – | – |
| CC(O)C1(CNc2cc(Cl)nc(N)n2)CC(CCc2ccccc2)C1 (stereo not given) | 37.3 µM | 29.4 µM | 32.6 µM | 26.4 µM | 21.8 µM | – | 25 µM | 27.3 µM | 24 µM | 27.3 µM | 23.3 µM | 19.4 µM | 43.1 µM | 27.7 µM | 29.2 µM | 34 µM | 29.4 µM | 27.6 µM | 38.4 µM | 0.992 µM |
| CCOC(=O)c1ccc(NC(=O)SCCC(=O)O)cc1 | > 100 µM | 54 µM | > 100 µM | – | – | > 100 µM | – | > 100 µM | > 100 µM | > 100 µM | – | > 100 µM | > 100 µM | > 100 µM | – | > 100 µM | – | – | – | – |
